In data set [1] the target is T1, Choline O-acetyltransferase (Rattus norvegicus) (UniProt P32738).
T1 sequence (whole entry): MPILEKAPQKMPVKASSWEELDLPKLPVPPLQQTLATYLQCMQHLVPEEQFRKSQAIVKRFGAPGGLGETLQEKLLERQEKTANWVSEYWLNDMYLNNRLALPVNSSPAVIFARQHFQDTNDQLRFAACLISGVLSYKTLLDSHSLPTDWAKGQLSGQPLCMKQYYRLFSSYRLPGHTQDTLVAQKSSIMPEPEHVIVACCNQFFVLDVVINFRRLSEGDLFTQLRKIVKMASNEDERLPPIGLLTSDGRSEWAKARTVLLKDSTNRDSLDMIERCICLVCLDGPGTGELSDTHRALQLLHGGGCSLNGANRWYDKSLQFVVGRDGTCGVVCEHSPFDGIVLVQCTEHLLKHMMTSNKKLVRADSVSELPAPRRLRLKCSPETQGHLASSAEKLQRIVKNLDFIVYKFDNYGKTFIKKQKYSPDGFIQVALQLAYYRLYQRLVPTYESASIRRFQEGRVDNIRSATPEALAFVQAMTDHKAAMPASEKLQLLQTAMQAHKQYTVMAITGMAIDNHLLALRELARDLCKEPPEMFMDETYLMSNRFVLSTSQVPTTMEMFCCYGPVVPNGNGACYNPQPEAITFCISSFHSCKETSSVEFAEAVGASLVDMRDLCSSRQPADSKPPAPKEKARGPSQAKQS
The experiment in a line: Rate of acetylation of 13.0+/-1.1 umol compound by 1 g of choline acetyltransferase (ChAc) by incubating for 10 minutes at 37 degrees Centigrade. Set-up: reference not given here.

Substrate in data set [2]: C[N+](C)(C)CCO
The experiment in a line: (§1) Apparent Michaelis-Menten Constant (KM) for the acetylation of compound was calculated from Linewear-Burke plots by incubating for 10 minutes at 37 degrees Centigrade.

Substrate in data set [3]: C[N+]1(C)CCOC(O)(c2ccc(-c3ccc(C4(O)C[N+](C)(C)CCO4)cc3)cc2)C1
The description is as §1.

Substrate in data set [4]: C[N+]1(C)CCOC(O)(c2ccc(CCCc3ccc(C4(O)C[N+](C)(C)CCO4)cc3)cc2)C1
The data set is described as §1.

In the case of `C[N+](C)(C)CCO`, the Acetylation in data set [1] turned out to be 100%.

Regarding `C[N+]1(C)CCOC(O)(c2ccc(CCCCc3ccc(C4(O)C[N+](C)(C)CCO4)cc3)cc2)C1` (centres undefined), the Acetylation in data set [1] was determined as 5%.

In data set [1], `C[N+]1(C)CCOC(O)(c2ccc(CCCc3ccc(C4(O)C[N+](C)(C)CCO4)cc3)cc2)C1` (centres undefined) gave an Acetylation of 28%.

In the case of `C[N+]1(C)CCOC(O)(c2ccc(-c3ccc(C4(O)C[N+](C)(C)CCO4)cc3)cc2)C1` (centres undefined), in data set [1], the Acetylation was found to be 28%.

`C[N+]1(C)CCOC(O)(c2ccc(Cc3ccc(C4(O)C[N+](C)(C)CCO4)cc3)cc2)C1` (centres undefined) had an Acetylation in data set [1] of 4%.

For `C[N+]1(C)CCOC(O)(c2ccc(CCc3ccc(C4(O)C[N+](C)(C)CCO4)cc3)cc2)C1` (centres undefined), the Acetylation in data set [1] is 3%.

B1: Choline O-acetyltransferase (Rattus norvegicus), P32738 (protein)
chain: T1 sequence (whole entry)
With B1, the values for the Km in data set [2], in data set [3] and in data set [4] were 290 µM, 1210 µM and 1270 µM, respectively.
